Patent US7884117B2, “Carbonylamino pyrrolopyrazoles, potent kinase inhibitors” (Pfizer Inc., priority 2005, dated 2011)

How the values were obtained:
[1] = biological target: T1, PAK4 kinase activity in whole cells (TR-293-KDG, modified HEK 293) (Homo sapiens, UniProt O96013); assay: PAK4 cellular assay: sandwich ELISA of PAK4-dependent phosphorylation of GEF-H1b in TR-293-KDG cells; type: cell-based; conditions: 3-hour exposure
T1 construct: engineered to overexpress both GEF-H1b and the kinase domain (KD) of PAK4; expressed in transfected cells; host or cells: TR-293-KDG (modified HEK 293, Trex system, Invitrogen)

[2] = biological target: T2, PAK4 Kinase domain (PAK4 KD) (Homo sapiens, UniProt O96013); assay: PAK4 kinase domain enzymatic assay (PK/LDH-coupled, Ki); type: biochemical; conditions: PAK4 Kinase Domain
T2 construct: Cloning, expression, and purification of recombinant PAK4 Kinase domain (PAK4 KD); His tag (pET28a(+)/pET24a(+), Ni-NTA purification) (N, cleaved yes); GST (pGST4.5, glutathione column) (N, cleaved yes); made in house; host or cells: E. coli BL21(DE3)
T2 sequence (O96013 321-572 limits assumed): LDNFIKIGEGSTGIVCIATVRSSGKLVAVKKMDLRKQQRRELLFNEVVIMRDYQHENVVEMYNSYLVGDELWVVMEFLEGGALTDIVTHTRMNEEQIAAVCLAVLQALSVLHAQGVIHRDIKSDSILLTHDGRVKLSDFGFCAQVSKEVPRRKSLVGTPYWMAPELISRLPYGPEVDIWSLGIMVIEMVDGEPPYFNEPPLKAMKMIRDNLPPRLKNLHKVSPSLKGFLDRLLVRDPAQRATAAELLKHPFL

T1 sequence (O96013 321-572 limits assumed): as above

Compound | EC50 [1] [nM] | Ki [2] [nM]
CN(C)CC(OC(=O)N1Cc2c(n[nH]c2NC(=O)C2CCCO2)C1(C)C)c1cccc(F)c1 (single isomer, unassigned) [Example 83B] | 5 | 36.2
CN(C)C[C@@H](OC(=O)N1Cc2c(NC(=O)c3ccccc3F)n[nH]c2C1(C)C)c1ccccc1 [Example 3, (1S)-2-(dimethylamino)-1-phenylethyl 3-[(2-fluorobenzoyl)amino]-6,6-dimethyl-4,6-dihydropyrrolo[3,4-c]pyrazole-5(1H)-carboxylate] | 50 | 42.1
CN(C)CC(OC(=O)N1Cc2c(NC(=O)c3ccc(F)cc3)n[nH]c2C1(C)C)c1ccccc1F (stereo not shown) [Example 38, 2-(dimethylamino)-1-(2-fluorophenyl)ethyl 3-[(4-fluorobenzoyl)amino]-6,6-dimethyl-4,6-dihydropyrrolo[3,4-c]pyrazole-5(1H)-carboxylate] | 113 | 43.2
CN(C)C[C@@H](OC(=O)N1Cc2c(NC(=O)c3ccc(F)cc3)n[nH]c2C1(C)C)c1ccccn1 [Example 25, (1R)-2-(dimethylamino)-1-pyridin-2-ylethyl 3-[(4-fluorobenzoyl)amino]-6,6-dimethyl-4,6-dihydropyrrolo[3,4-c]pyrazole-5(1H)-carboxylate] | 153 | 78.6
CN(C)C[C@@H](OC(=O)N1Cc2c(NC(=O)C3CCCCC3)n[nH]c2C1(C)C)c1ccccc1 [Example 13, (1S)-2-(dimethylamino)-1-phenylethyl 3-[(cyclohexylcarbonyl)amino]-6,6-dimethyl-4,6-dihydropyrrolo[3,4-c]pyrazole-5(1H)-carboxylate] | 3.9 | 109
CN(C)C[C@@H](NC(=O)N1Cc2c(NC(=O)Cc3ccc(F)cc3)n[nH]c2C1(C)C)c1ccccc1 [Example 54, N-[(1S)-2-(dimethylamino)-1-phenylethyl]-3-{[(4-fluorophenyl)acetyl]amino}-6,6-dimethyl-4,6-dihydropyrrolo[3,4-c]pyrazole-5(1H)-carboxamide] | 353 | 41
CN(C)CC(OC(=O)N1Cc2c(n[nH]c2NC(=O)C2CCCO2)C1(C)C)c1cccc(F)c1 (single isomer, unassigned) [Example 84B] | 396 | 
CN(C)CC(OC(=O)N1Cc2c(n[nH]c2NC(=O)C2CCCO2)C1(C)C)c1cccc(F)c1 (single isomer, unassigned) [Example 83A] | 560 | 
COc1cc(C(=O)Nc2n[nH]c3c2CN(C(=O)N[C@H](CN(C)C)c2ccccc2)C3(C)C)nc(OC)n1 [Example 106, (S)-3-(2,4-dimethoxypyrimidine-6-carboxamido)-N-(2-(dimethylamino)-1-phenylethyl)-6,6-dimethylpyrrolo[3,4-c]pyrazole-5(1H,4H,6H)-carboxamide] |  | 412
CN(C)[C@@H](COC(=O)N1Cc2c(NC(=O)c3ccc(F)cc3)n[nH]c2C1(C)C)c1ccccc1 [Example 41, (R)-2-(dimethylamino)-2-phenylethyl 3-[(4-fluorobenzoyl)amino]-6,6-dimethyl-4,6-dihydropyrrolo[3,4-c]pyrazole-5(1H)-carboxylate] |  | 786
CN(C)C[C@H](Cc1ccccc1)OC(=O)N1Cc2c(NC(=O)c3ccc(F)cc3)n[nH]c2C1(C)C [Example 76, (1S)-1-benzyl-2-(dimethylamino)ethyl 3-[(4-fluorobenzoyl)amino]-6,6-dimethyl-4,6-dihydropyrrolo[3,4-c]pyrazole-5(1H)-carboxylate] |  | 468
CC1(C)c2[nH]nc(NC(=O)C3CCC3)c2CN1C(=O)N[C@@H]1CCN(Cc2ccccc2)C1 [Example 65, N-[(3R)-1-benzylpyrrolidin-3-yl]-3-[(cyclobutylcarbonyl)amino]-6,6-dimethyl-4,6-dihydropyrrolo[3,4-c]pyrazole-5(1H)-carboxamide] |  | 849
COC[C@@H](NC(=O)N1Cc2c(NC(=O)c3ccccc3)n[nH]c2C1(C)C)c1ccccc1 [Example 120, (S)-3-benzamido-N-(2-methoxy-1-phenylethyl)-6,6-dimethylpyrrolo[3,4-c]pyrazole-5(1H,4H,6H)-carboxamide] |  | 463
